These results are taken from BindingDB's records for doi:10.1016/j.bmc.2016.06.011 (Florida A&M University, 2016).

Assay [1] has as its target T1, 5-hydroxytryptamine receptor 2C (Homo sapiens, UniProt P28335).
T1 sequence (P28335 whole entry): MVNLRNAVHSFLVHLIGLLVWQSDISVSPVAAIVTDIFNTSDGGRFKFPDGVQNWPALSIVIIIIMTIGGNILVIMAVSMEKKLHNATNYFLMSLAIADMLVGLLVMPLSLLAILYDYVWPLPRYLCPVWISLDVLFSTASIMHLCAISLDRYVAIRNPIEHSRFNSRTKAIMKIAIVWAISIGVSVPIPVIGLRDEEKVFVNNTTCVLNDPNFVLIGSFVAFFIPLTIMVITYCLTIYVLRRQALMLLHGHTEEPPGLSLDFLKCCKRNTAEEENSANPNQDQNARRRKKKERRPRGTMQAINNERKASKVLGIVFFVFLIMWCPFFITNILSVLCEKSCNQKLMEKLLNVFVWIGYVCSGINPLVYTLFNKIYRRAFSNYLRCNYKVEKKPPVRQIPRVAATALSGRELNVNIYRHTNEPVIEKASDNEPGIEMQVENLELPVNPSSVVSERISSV
The experiment in a line: Displacement of [3H]Mesulergine from human recombinant 5HT2C receptor incubated for […] by microbeta scintillation counting method. (In a radioligand displacement assay an active substance lowers the binding of a labelled ligand.)

The target in assay [2] is 5-hydroxytryptamine receptor 2A (Homo sapiens, UniProt P28223). The experiment in a line: Displacement of [3H]Ketanserin from human recombinant 5HT2A receptor incubated for […] by microbeta scintillation counting method.
5-hydroxytryptamine receptor 2A, sequence (P28223 whole entry): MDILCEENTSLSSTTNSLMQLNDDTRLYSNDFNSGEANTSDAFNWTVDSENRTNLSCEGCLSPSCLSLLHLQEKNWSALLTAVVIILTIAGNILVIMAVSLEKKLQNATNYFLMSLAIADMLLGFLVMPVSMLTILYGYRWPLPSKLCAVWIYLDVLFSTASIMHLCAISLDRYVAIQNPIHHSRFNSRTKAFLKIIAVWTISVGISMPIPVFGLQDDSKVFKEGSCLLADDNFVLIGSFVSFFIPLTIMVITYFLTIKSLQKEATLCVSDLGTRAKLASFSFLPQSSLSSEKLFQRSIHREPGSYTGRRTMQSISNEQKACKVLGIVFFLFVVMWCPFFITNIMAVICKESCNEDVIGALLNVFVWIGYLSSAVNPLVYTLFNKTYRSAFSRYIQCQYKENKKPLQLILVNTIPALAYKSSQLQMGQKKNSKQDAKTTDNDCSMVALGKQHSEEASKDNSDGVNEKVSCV
For assay [3], the target named is T2, D(4) dopamine receptor (Homo sapiens, UniProt P21917).
T2 sequence (P21917 whole entry): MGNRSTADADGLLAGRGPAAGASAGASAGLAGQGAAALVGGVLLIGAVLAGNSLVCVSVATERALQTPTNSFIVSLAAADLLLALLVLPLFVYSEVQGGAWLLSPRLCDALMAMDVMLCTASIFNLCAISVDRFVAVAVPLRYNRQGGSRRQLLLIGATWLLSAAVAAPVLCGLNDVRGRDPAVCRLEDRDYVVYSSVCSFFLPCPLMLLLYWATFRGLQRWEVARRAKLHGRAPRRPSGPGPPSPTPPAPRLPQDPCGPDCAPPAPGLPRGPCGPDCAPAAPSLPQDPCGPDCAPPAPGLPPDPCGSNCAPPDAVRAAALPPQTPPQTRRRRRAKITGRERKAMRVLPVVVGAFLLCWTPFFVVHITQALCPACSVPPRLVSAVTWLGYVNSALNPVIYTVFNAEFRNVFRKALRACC
The experiment in a line: Displacement of [3H]N-methylspiperone from human recombinant dopamine D4 receptor incubated for […] by microbeta scintillation counting method.

Usually Ki stands for the dissociation constant of the complex between target and ligand, obtained from inhibition or displacement. Regarding `OC1(c2ccc(Cl)cc2)CC2CCC(C1)N2CCCCc1nc2ccccc2s1` (centres undefined), the Ki was 4570 nM in assay [1] and greater than 10000 nM in assay [2].
`O=C(CCCCN1CCC(n2c(=O)[nH]c3cc(Cl)ccc32)CC1)c1nc2ccccc2s1`: in assay [3], the Ki came to 1700 nM.
Still for that read-out and setting: the figure for `OC1(c2ccc(Cl)cc2)CCN(CCCCc2nc3ccccc3s2)CC1` is 141 nM.
